In article PMC3961306, “Comparison of the Cancer Gene Targeting and Biochemical Selectivities of All Targeted Kinase Inhibitors Approved for Clinical Use” (PLoS ONE, 2014):
Where two headings read alike, the source gives them in different places.

Experiments:
[1] = target: panel of more than 300 wild-type and mutant kinases (313 kinase panel) (Homo sapiens, UniProt P15056, V600E); assay: Kinase profiling in a biochemical assay panel (mobility shift assays and ELISA), %-inhibition at 1 μM; selectivity entropy; settings: kinase BRAF(V600E); 1 μM compound
[2] = target: panel of more than 300 wild-type and mutant kinases (313 kinase panel) (Homo sapiens, UniProt P07947, T348I); assay: as above; settings: kinase YES(T348I); compound at 1 μM
[3] = target: panel of more than 300 wild-type and mutant kinases (313 kinase panel) (Homo sapiens, UniProt P15056); assay: as above; settings: kinase BRAF; 1 μM compound
[4] = target: panel of more than 300 wild-type and mutant kinases (313 kinase panel) (Homo sapiens, UniProt P22612); assay: as above; settings: kinase PKACγ; 1 μM
[5] = test system: forty-four human cancer cell lines; assay: Cell proliferation assay (ATPlite, 72 hours) in the 44 cell line Oncolines panel; type: cell-based; settings: Homo sapiens

Sequence of panel of more than 300 wild-type and mutant kinases (313 kinase panel) (Homo sapiens, UniProt P15056) (P15056 whole entry, change not shown): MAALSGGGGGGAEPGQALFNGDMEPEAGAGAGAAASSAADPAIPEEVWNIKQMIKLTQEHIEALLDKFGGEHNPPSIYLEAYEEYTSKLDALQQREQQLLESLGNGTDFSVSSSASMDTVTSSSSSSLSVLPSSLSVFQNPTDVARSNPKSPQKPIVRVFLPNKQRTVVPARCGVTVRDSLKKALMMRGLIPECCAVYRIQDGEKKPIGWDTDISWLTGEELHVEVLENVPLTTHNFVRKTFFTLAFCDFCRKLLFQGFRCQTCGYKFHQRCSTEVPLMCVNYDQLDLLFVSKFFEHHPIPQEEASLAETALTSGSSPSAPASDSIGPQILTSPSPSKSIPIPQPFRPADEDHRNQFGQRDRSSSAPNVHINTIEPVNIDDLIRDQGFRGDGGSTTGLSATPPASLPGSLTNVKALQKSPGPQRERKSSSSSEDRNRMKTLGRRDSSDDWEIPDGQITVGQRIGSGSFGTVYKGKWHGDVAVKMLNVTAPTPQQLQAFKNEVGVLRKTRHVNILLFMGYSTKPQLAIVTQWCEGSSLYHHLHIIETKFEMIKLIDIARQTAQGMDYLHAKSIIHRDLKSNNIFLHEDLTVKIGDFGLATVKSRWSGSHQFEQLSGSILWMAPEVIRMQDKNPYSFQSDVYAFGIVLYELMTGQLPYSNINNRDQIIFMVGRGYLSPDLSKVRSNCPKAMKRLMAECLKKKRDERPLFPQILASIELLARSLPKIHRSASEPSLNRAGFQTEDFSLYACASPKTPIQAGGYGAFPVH
Sequence of panel of more than 300 wild-type and mutant kinases (313 kinase panel) (Homo sapiens, UniProt P15056, V600E) (P15056 whole entry V600E): as the sequence (P15056 whole entry, change not shown) above, with V600E counted along it
Sequence of panel of more than 300 wild-type and mutant kinases (313 kinase panel) (Homo sapiens, UniProt P07947, T348I) (P07947 whole entry T348I): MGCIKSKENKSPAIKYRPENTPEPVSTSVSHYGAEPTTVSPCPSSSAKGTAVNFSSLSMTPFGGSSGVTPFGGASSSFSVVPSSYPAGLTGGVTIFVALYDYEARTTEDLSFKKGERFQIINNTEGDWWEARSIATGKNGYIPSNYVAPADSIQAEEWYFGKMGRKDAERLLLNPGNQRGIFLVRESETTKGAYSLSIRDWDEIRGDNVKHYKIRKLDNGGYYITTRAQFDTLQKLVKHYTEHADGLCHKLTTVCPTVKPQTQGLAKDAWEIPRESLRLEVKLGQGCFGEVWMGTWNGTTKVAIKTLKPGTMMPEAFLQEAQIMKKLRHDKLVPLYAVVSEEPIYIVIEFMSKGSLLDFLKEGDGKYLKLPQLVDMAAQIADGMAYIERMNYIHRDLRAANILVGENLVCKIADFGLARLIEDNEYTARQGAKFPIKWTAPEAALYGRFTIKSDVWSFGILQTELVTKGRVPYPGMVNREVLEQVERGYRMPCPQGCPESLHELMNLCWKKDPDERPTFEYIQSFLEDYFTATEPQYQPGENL

SMILES: COc1cc2c(Nc3ccc(Br)cc3F)ncnc2cc1OCC1CCN(C)CC1 [vandetanib]
- %-inhibition, BRAF(V600E) [1]: 18%
- %-inhibition of YES(T348I) [2]: 100%
- %-inhibition, BRAF [3]: 24%
- %-inhibition of PKACγ [4]: 6%
- IC50 ([5]; 4-4 cell, read-out: cell panel IC50, J82): 5.08 µM
- IC50 ([5]; 4-4 cell, read-out: cell panel IC50, SJCRH30): 4.02 µM
- IC50 ([5]; 4-4 cell, read-out: cell panel IC50, SR): 4.15 µM
- IC50 ([5]; 769-P, read-out: cell panel IC50, 769-P): 1.22 µM
- IC50 ([5]; 786-0, read-out: cell panel IC50, 786-0): 4.37 µM
- IC50 ([5]; A204, read-out: cell panel IC50, A-204): 2.5 µM
- IC50 ([5]; A498, read-out: cell panel IC50, A-498): 3.31 µM
- IC50 ([5]; A549, read-out: cell panel IC50, A-549): 5.49 µM
- IC50 ([5]; A-375, read-out: cell panel IC50, A375): 3.27 µM
- IC50 ([5]; A-427, read-out: cell panel IC50, A-427): 2.55 µM
- IC50 ([5]; ACHN, read-out: cell panel IC50, ACHN): 2.28 µM
- IC50 ([5]; AN3-CA, read-out: cell panel IC50, AN3 CA): 0.489 µM
- IC50 ([5]; AU565, read-out: cell panel IC50, AU-565): 3.51 µM
- IC50 ([5]; BT-20, read-out: cell panel IC50, BT-20): 14.6 µM
- IC50 ([5]; BT-549, read-out: cell panel IC50, BT-549): 10 µM
- IC50 ([5]; BXPC-3, read-out: cell panel IC50, BxPC-3): 2.1 µM
- IC50 ([5]; C-33-A, read-out: cell panel IC50, C-33 A): 0.643 µM
- IC50 ([5]; CAL-27, read-out: cell panel IC50, CAL 27): 1 µM
- IC50 ([5]; CCRF-CEM, read-out: cell panel IC50, CCRF-CEM): 6.65 µM
- IC50 ([5]; DLD-1, read-out: cell panel IC50, DLD-1): 6.07 µM
- IC50 ([5]; FaDu, read-out: cell panel IC50, FaDu): 1.29 µM
- IC50 ([5]; HCT-15, read-out: cell panel IC50, HCT-15): 7.38 µM
- IC50 ([5]; HCT-116, read-out: cell panel IC50, HCT-116): 9.24 µM
- IC50 ([5]; Hs-578T, read-out: cell panel IC50, Hs 578T): 3.91 µM
- IC50 ([5]; Jurkat E6.1, read-out: cell panel IC50, Jurkat E6.1): 3.95 µM
- IC50 ([5]; K562, read-out: cell panel IC50, K-562): 0.908 µM
- IC50 ([5]; LS174T, read-out: cell panel IC50, LS 174T): 2.81 µM
- IC50 ([5]; LoVo, read-out: cell panel IC50, LoVo): 1.45 µM
- IC50 ([5]; MG-63, read-out: cell panel IC50, MG-63): 6.46 µM
- IC50 ([5]; MOLT-4, read-out: cell panel IC50, MOLT-4): 3.4 µM
- IC50 ([5]; MeWo, read-out: cell panel IC50, MeWo): 5.52 µM
- IC50 ([5]; NCI-H82, read-out: cell panel IC50, NCI-H82): 7.2 µM
- IC50 ([5]; NCI-H460, read-out: cell panel IC50, NCI-H460): 11.9 µM
- IC50 ([5]; OVCAR-3, read-out: cell panel IC50, OVCAR-3): 3.08 µM
- IC50 ([5]; RPMI-7951, read-out: cell panel IC50, RPMI-7951): 4.14 µM
- IC50 ([5]; SHP77, read-out: cell panel IC50, SHP-77): 14.6 µM
- IC50 ([5]; SK-N-AS, read-out: cell panel IC50, SK-N-AS): 4.23 µM
- IC50 ([5]; SW48, read-out: cell panel IC50, SW48): > 31.6 µM
- IC50 ([5]; SW480, read-out: cell panel IC50, SW480): 13.8 µM
- IC50 ([5]; SW-620, read-out: cell panel IC50, SW620): 16.4 µM
- IC50 ([5]; U2OS, read-out: cell panel IC50, U-2 OS): 4.09 µM
- IC50 ([5]; U-87 MG, 72 h, read-out: IC50 in cell proliferation assay (table S5 cellpanel data)): 7.41 µM
